Assay results from patent publication US20110059941A1, “2-PHENYL SUBSTITUTED IMIDAZOL [4,5B] PYRIDINE/PYRAZINE AND PURINE DERIVATIVES AS GLUCOKINASE MODULATORS” (priority 2005, published 2011).

Target: T1, recombinant human pancreatic GLK (Homo sapiens, UniProt P35557)
T1 sequence (P35557 1-465): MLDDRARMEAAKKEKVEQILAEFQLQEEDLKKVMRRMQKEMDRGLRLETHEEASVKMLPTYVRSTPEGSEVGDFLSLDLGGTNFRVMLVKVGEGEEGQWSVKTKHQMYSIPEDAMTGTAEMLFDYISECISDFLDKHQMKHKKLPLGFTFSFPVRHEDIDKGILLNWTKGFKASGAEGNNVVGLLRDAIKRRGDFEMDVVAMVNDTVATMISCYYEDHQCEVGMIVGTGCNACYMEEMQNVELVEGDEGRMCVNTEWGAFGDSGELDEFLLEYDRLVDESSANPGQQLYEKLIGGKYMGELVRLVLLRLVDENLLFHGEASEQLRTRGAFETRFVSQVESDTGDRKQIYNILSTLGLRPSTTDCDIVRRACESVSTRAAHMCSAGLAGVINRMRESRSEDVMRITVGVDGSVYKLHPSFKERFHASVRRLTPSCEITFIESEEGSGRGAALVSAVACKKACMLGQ
Test: biochemical

COC[C@H](C)Oc1cc(OCc2ccccc2)cc(-c2nc3cccnc3[nH]2)c1 [Example 1, 2-{3-(Benzyloxy)-5-[(1S)-2-methoxy-1-methylethoxy]phenyl}-3H-imidazo[4,5-b]pyridine]
EC50: 600 nM
